Laboratory results as given in US4443246A, “Herbicidal pyridyl-ethoxy-phenyl urea derivatives” (Takeda Chemical Industries, Ltd., priority 1981, dated 1984).

Experiments:
weeds = settings: prior art, in words; cited from earlier work
Toxicity to fishes (TLm) = settings: in vivo
[1] = Toxicity to mammals (LD50, orally in mice); settings: mouse, in vivo, po
Corn = test: Phytotoxicity to crop (corn), foliar pot test; assay type: in vivo, Zea mays L.; settings: 14 days after foliar spray
Protocol: 900 cm^2 -Plastic pots are packed with crop-filed soil and sown with seeds of Red root pigweed (Amaranthus retroflexus L.), Purple lambsquarter (Chenopodium album (L.) var. centrorubrum Makino), Oriental smartweed, (Polygonum Blumei Meisn.), Common purslane (Portulaca oleracea L.), Tall morningglory (Ipomoea purpurea (L.) Roth), Cocklebur (Xanthium strumarium L.), Velvetleaf (Abutilon theophrasti Medic.), Jimson weed (Datura stramonium L.) and Corn (Zea mays L.)
These test plants are grown in a greenhouse for 9-14 days. When the true leaves sprouted, these pots are placed in a chamber of 1000 cm^2, where 10 ml each of solutions each containing a given weight of the test compound is applied to each plant from the above with a small spraygun so that each drug solution is applied to leaves and stalks of the respective plants homogeneously. These pots are then left standing in the greenhouse for 14 days. Then, the above-ground portions of each of the thus treated plants, which have remained non-withering, are collected by cutting, followed by weighing while they are fresh.
The non-withering ratio is calculated on the basis of the corresponding weight of the control (non-treated) plants as 100%. The phytotoxicity and herbicidal effect of the test compound are evaluated on the basis of the following criteria. The test solution is prepared by dissolving the test compound of a given weight in 1 ml of acetone containing 1% of a surface-active agent, Tween 20® (Kao Atlas Co., Japan), which is diluted with deionized water to make the total volume to be 10 ml.
To dissolve or disperse the test compound completely in the acetone, stirring by means of super-sonic wave is employed.
Phytotoxicity to crop (corn) is indicated with the following indexes:
(The indexes 0 and 1 to crop denote the test compound can be practically applicable to crop.)

Row | Structure (SMILES) | herbicidal activity (weeds) | LC50 (Toxicity to fishes (TLm)) [µg/mL] | LD50 [1] [mg/kg] | Phytotoxicity Corn (Corn; Application rate 10) | Phytotoxicity Corn (Corn; Application rate 20)
1 | CN(C)C(=O)Nc1ccc(Oc2ccc(Cl)cc2)cc1 [chloroxuron, N'-[4-(4-chlorophenoxy)phenyl]-N,N-dimethylurea] | have herbicidal activity |  |  |  | 
2 | Cc1cccc(CCOc2ccc(NC(=O)N(C)C)cc2)n1 [Compound No. 1, N,N-dimethyl-N'-[4-[2-(6-methyl-2-pyridyl)ethoxy]phenyl]urea] |  | ≥ 10 | ≥ 300 | 0 (None 0) | 0 (None 0)
3 | CON(C)C(=O)Nc1ccc(OCCc2cccc(C)n2)cc1 [Compound No. 3, N-methoxy-N-methyl-N'-[4-[2-(6-methyl-2-pyridyl)ethoxy]phenyl]urea] |  |  |  | 1 (Negligible 0.1 to 12.5) | 1 (Negligible 0.1 to 12.5)
4 | CCc1ccc(CCOc2ccc(NC(=O)N(C)C)cc2)nc1 [Compound No. 2, N,N-dimethyl-N'-[4-[2-(5-ethyl-2-pyridyl)ethoxy]phenyl]urea] |  |  |  | 1 (Negligible 0.1 to 12.5) | 1 (Negligible 0.1 to 12.5)
